Data: US20240182495A1, “ANTIBACTERIAL COMPOUNDS” (JANSSEN SCIENCES IRELAND UNLIMITED COMPANY, priority 2021, published 2024)
Marks after values point to notes of the source that are not given here.

Test system: Mycobacterium tuberculosis strain (EH4.0, GFP-expressing; Test 2: H37Rv)
Assay: MIC determination against M. tuberculosis, Test 1 (and/or Test 2)
Assay type: cell-based
Conditions: 7 days incubation, fluorescence; for IC50: Mycobacterium tuberculosis, H37RV, 168 h

## CCc1nc2ncc(C(C)C)cn2c1C(=O)NCc1ccc(-c2nc3n(n2)CCN(S(=O)(=O)C(F)(F)F)C3)cc1 [Compound 26]
  IC50: 245 nM

## CCc1nc2ccc(C)cn2c1C(=O)NCc1ccc(-c2nc3n(n2)CCN(C(=O)C(F)(F)F)C3)cc1 [Compound 53]
  IC50: 120 nM

## CCc1nc2ccc(C)cn2c1C(=O)NCc1ccc(-c2nc3n(n2)CCN(C)C3)cc1 [Compound 56]
  IC50: 74.1 nM

## CCc1nc2ncc(C)cn2c1C(=O)NCc1ccc(N2CCC(c3nc4n(n3)CCN(S(=O)(=O)C(F)(F)F)C4)CC2)cc1 [Compound 60]
  IC50: 93.3 nM

## CCc1nc2n(c1C(=O)NCc1ccc(-c3nc4n(n3)CCN(S(=O)(=O)C(F)(F)F)C4)cc1)CCCC2 [Compound 31]
  IC50: 24 nM

## CCc1nc2ncc(Cl)cn2c1C(=O)NCc1ccc(-c2nc3n(n2)CCN(S(=O)(=O)C(F)(F)F)C3)c(F)c1 [Compound 4]
  IC50: 12.6 nM

## CCc1nc2n(c1C(=O)NCc1ccc(-c3nc4n(n3)CCN(S(=O)(=O)C(F)(F)F)C4)cc1)CCN(C)C2 [Compound 65]
  IC50: 331 nM

## CCc1nc2c(Cl)c(OC)ccn2c1C(=O)NCc1ccc(-c2nc3n(n2)CCN(S(=O)(=O)C(F)(F)F)C3)c(F)c1 [Compound 11]
  IC50: 447 nM

## CCc1nc2nc3c(cn2c1C(=O)NCc1ccc(-c2nc4n(n2)CCN(S(=O)(=O)C(F)(F)F)C4)c(F)c1)CCOC3 [Compound 18]
  IC50: 151 nM

## CCc1nc2ncc(C)cn2c1C(=O)NCc1ccc(-c2nc3n(n2)CCN(CCOC)C3)cc1 [Compound 54]
  IC50: 132 nM

## CCc1nc2ncc(F)cn2c1C(=O)NCc1ccc(-c2nc3n(n2)CCN(S(=O)(=O)C(F)(F)F)C3)c(F)c1 [Compound 17]
  IC50: 195 nM

## CCc1nc2n(c1C(=O)NCc1ccc(-c3nc4n(n3)CCN(S(=O)(=O)C(F)(F)F)C4)cc1)CCOC2 [Compound 63]
  IC50: 191 nM

## CCc1nc2ncc(C)cn2c1C(=O)NCc1ccc(C2CCN(c3nc4n(n3)CCN(S(=O)(=O)C(F)(F)F)C4)CC2)cc1 [Compound 59]
  IC50: 110 nM

## CCc1nc2cc(C)c(Cl)cn2c1C(=O)NCc1ccc(-c2nc3n(n2)CCN(S(=O)(=O)C(F)(F)F)C3)c(F)c1 [Compound 9]
  IC50: 363 nM

## CCc1nc2ncc(C)cn2c1C(=O)NCc1ccc(-c2nc3n(n2)CCNC3)cc1 [Compound 37]
  IC50: 457 nM

## CCc1nc2ncc(Cl)cn2c1C(=O)NCc1cnc(-c2nc3n(n2)CCN(S(=O)(=O)C(F)(F)F)C3)c(F)c1 [Compound 77]
  IC50: 457 nM

## CCc1nc2ncc(C)cn2c1C(=O)NCc1ccc(-c2nc3n(n2)CCN(C)C3)cc1 [Compound 50]
  IC50: 170 nM

## CCc1nc2ncc(C)cn2c1C(=O)NCc1cnc(-c2nc3n(n2)CCN(S(=O)(=O)C(F)(F)F)C3)s1 [Compound 74]
  IC50: 309 nM

## CCc1nc2ncc(C)cn2c1C(=O)NCc1cccc(Cc2nc3n(n2)CCN(S(=O)(=O)C(F)(F)F)C3)c1 [Compound 71]
  pIC50: <6.3*

## CCc1nc2nc(C)c(Cl)cn2c1C(=O)NCc1ccc(-c2nc3n(n2)CCN(S(=O)(=O)C(F)(F)F)C3)cc1 [Compound 8]
  pIC50: 7.58

## O=C(NCc1ccc(-c2nc3n(n2)CCN(S(=O)(=O)C(F)(F)F)C3)c(F)c1)c1c(C(F)F)nc2ccc(Cl)cn12 [Compound 5]
  IC50: 229 nM

## CCc1nc2nc(NC)c(Cl)cn2c1C(=O)NCc1ccc(-c2nc3n(n2)CCN(S(=O)(=O)C(F)(F)F)C3)c(F)c1 [Compound 13]
  pIC50: <6.301

## Cc1ccc2nc(C3CC3)c(C(=O)NCc3ccc(-c4nc5n(n4)CCN(S(=O)(=O)C(F)(F)F)C5)cc3)n2c1 [Compound 30]
  IC50: 41.7 nM

## CCc1nc2sc(C)cn2c1C(=O)NCc1ccc(-c2nc3n(n2)CCN(S(=O)(=O)C(F)(F)F)C3)cc1 [Compound 36]
  IC50: 16.2 nM

## CCc1nc2ccc(C(C)C)cn2c1C(=O)NCc1ccc(-c2nc3n(n2)CCN(S(=O)(=O)C(F)(F)F)C3)cc1 [Compound 35]
  IC50: > 500 nM

## CCc1nc2ncc(C)cn2c1C(=O)NCc1ccc(-c2nc3n(n2)CCN(S(=O)(=O)N(C)C)C3)cc1 [Compound 41]
  IC50: 45.7 nM

## CCc1nc2cc(Cl)c(C)cn2c1C(=O)NCc1cnc(-c2nc3n(n2)CCN(S(=O)(=O)C(F)(F)F)C3)c(F)c1 [Compound 19]
  pIC50: 6.48

## CCc1nc2ccc(C)cn2c1C(=O)NCc1ccc(-c2nc3n(n2)CCN(C(C)=O)C3)cc1 [Compound 46]
  IC50: 282 nM

## CCc1nc2c(F)cc(Cl)cn2c1C(=O)NCc1ccc(-c2nc3n(n2)CCN(S(=O)(=O)C(F)(F)F)C3)cc1 [Compound 21]
  IC50: 40.7 nM

## CCc1nc2ccc(C)cn2c1C(=O)NCc1ccc(-c2nc3n(n2)CCN(CCOC)C3)cc1 [Compound 55]
  IC50: 50.1 nM

## CCc1nc2nc(C)c(C)cn2c1C(=O)NCc1ccc(-c2nc3n(n2)CCN(S(=O)(=O)C(F)(F)F)C3)cc1 [Compound 33]
  IC50: 12.9 nM

## Cc1nc2sc(Cl)cn2c1C(=O)NCc1ccc(-c2nc3n(n2)CCN(S(=O)(=O)C(F)(F)F)C3)cc1 [Compound 38]
  IC50: 282 nM

## CCc1nc2ccc(C)cn2c1C(=O)NCc1ccc(-c2nc3n(n2)CCN(CCC#N)C3)cc1 [Compound 62]
  IC50: 174 nM

## CCc1nc2ncc(C)cn2c1C(=O)NCc1cccc(-c2nc3n(n2)CCN(S(=O)(=O)C(F)(F)F)C3)c1 [Compound 67]
  IC50: 162 nM

## CCc1nc2ncc(C)cn2c1C(=O)NCc1ccc(N2CCN(c3nc4n(n3)CCN(S(=O)(=O)C(F)(F)F)C4)CC2)cc1 [Compound 70]
  IC50: 91.2 nM

## CCc1nc2cc(Cl)c(C)cn2c1C(=O)NCc1ccc(-c2nc3n(n2)CCN(S(=O)(=O)C(F)(F)F)C3)cc1 [Compound 25]
  IC50: 182 nM

## CCc1nc2ncc(C)cn2c1C(=O)NCc1coc(-c2nc3n(n2)CCN(S(=O)(=O)C(F)(F)F)C3)n1 [Compound 72]
  pIC50: <6.3

## CCc1nc2cc(N)c(Cl)cn2c1C(=O)NCc1cnc(-c2nc3n(n2)CCN(S(=O)(=O)C(F)(F)F)C3)c(F)c1 [Compound 78]
  IC50: > 501 nM

## CCc1nc2ncc(C)cn2c1C(=O)NCc1ccc(-c2nc3n(n2)CCN(S(=O)(=O)C(F)(F)F)C3)s1 [Compound 57]
  IC50: 26.3 nM

## CCc1nc2sc(Cl)cn2c1C(=O)NCc1ccc(-c2nc3n(n2)CCN(S(=O)(=O)C(F)(F)F)C3)cc1 [Compound 39]
  IC50: 123 nM

## CCc1nc2ncc(C)cn2c1C(=O)NCc1nnc(-c2nc3n(n2)CCN(S(=O)(=O)C(F)(F)F)C3)s1 [Compound 76]
  IC50: > 501 nM

## CCc1nc2ncc(C)cn2c1C(=O)NCc1ccc(C2CN(c3nc4n(n3)CCN(S(=O)(=O)C(F)(F)F)C4)C2)cc1 [Compound 58]
  IC50: 123 nM

## CCc1nc2ncc(C)cn2c1C(=O)NCc1ccc(-c2nc3n(n2)CCN(CCC#N)C3)cc1 [Compound 61]
  IC50: 389 nM

## CCc1nc2ncc(C)cn2c1C(=O)NCc1csc(-c2nc3n(n2)CCN(S(=O)(=O)C(F)(F)F)C3)n1 [Compound 73]
  IC50: > 501 nM

## CCc1nc2ncc(C3CC3)cn2c1C(=O)NCc1ccc(-c2nc3n(n2)CCN(S(=O)(=O)C(F)(F)F)C3)cc1 [Compound 28]
  IC50: 53.7 nM

## CCc1nc2ncc(C)cn2c1C(=O)NCc1ccc(-c2nc3n(n2)CCN(C(C)=O)C3)cc1 [Compound 40]
  IC50: 501 nM

## CCc1nc2ccc(Cl)cn2c1C(=O)NCc1ccc(-c2nc3n(n2)CCN(S(=O)(=O)C(F)(F)F)C3)c(F)c1 [Compound 3]
  IC50: 61.7 nM

## CCc1nc2ccc(C)cn2c1C(=O)NCc1ccc(-c2nc3n(n2)CCNC3)cc1 [Compound 52]
  IC50: 209 nM

## CCc1nc2ccc(C)cn2c1C(=O)NCc1ccc(-c2nc3n(n2)CCN(S(=O)(=O)N(C)C)C3)cc1 [Compound 51]
  IC50: 41.7 nM

## CCc1nc2ncc(C)cn2c1C(=O)NCc1ccc(-c2nc3n(n2)CCN(C(=O)C(F)(F)F)C3)cc1 [Compound 43]
  IC50: 282 nM

## CCc1nc2cc(C)c(C)cn2c1C(=O)NCc1ccc(-c2nc3n(n2)CCN(S(=O)(=O)C(F)(F)F)C3)cc1 [Compound 23]
  IC50: 32.4 nM

## CCc1nc2ccc(C)cn2c1C(=O)NCc1ccc(-c2nc3n(n2)CCN(S(=O)(=O)N2CCCC2)C3)cc1 [Compound 48]
  IC50: 25.7 nM

## Cc1cnc2nc(C)c(C(=O)NCc3ccc(-c4nc5n(n4)CCN(S(=O)(=O)C(F)(F)F)C5)cc3)n2c1 [Compound 29]
  IC50: 21.9 nM

## CCc1nc2cc(OC)c(Cl)cn2c1C(=O)NCc1cnc(-c2nc3n(n2)CCN(S(=O)(=O)C(F)(F)F)C3)c(F)c1 [Compound 16]
  IC50: 501 nM

## CCc1nc2ncc(C)cn2c1C(=O)NCc1nc(-c2nc3n(n2)CCN(S(=O)(=O)C(F)(F)F)C3)cs1 [Compound 75]
  IC50: > 501 nM

## Cc1cn2c(C(=O)NCc3ccc(-c4nc5n(n4)CCN(S(=O)(=O)C(F)(F)F)C5)cc3)c(C)nc2s1 [Compound 32]
  IC50: 60.3 nM

## CCc1nc2ccc(C3CC3)cn2c1C(=O)NCc1ccc(-c2nc3n(n2)CCN(S(=O)(=O)C(F)(F)F)C3)cc1 [Compound 27]
  IC50: 138 nM

## CCc1nc2ccc(F)cn2c1C(=O)NCc1ccc(-c2nc3n(n2)CCN(S(=O)(=O)C(F)(F)F)C3)cc1 [Compound 22]
  IC50: 44.7 nM

## Cc1ccc2nc(C)c(C(=O)NCc3ccc(-c4nc5n(n4)CCN(S(=O)(=O)C(F)(F)F)C5)cc3)n2c1 [Compound 34]
  IC50: 12.6 nM

## CCc1nc2ncc(C)cn2c1C(=O)NCc1ncc(-c2nc3n(n2)CCN(S(=O)(=O)C(F)(F)F)C3)s1 [Compound 64]
  IC50: 132 nM

## CCc1nc2cc(C)c(Cl)cn2c1C(=O)NCc1cnc(-c2nc3n(n2)CCN(S(=O)(=O)C(F)(F)F)C3)c(F)c1 [Compound 20]
  IC50: 501 nM

## CCc1nc2nc3c(cn2c1C(=O)NCc1ccc(-c2nc4n(n2)CCN(S(=O)(=O)C(F)(F)F)C4)cc1)CCC3 [Compound 45]
  IC50: 15.1 nM

## CCc1nc2ncc(C)cn2c1C(=O)NC1(c2ccc(-c3nc4n(n3)CCN(S(=O)(=O)C(F)(F)F)C4)cc2)CC1 [Compound 68]
  pIC50: <6.3*

## CCc1nc2ncc(C)cn2c1C(=O)NCc1ccc(C2CCN(c3nc4n(n3)CCN(S(=O)(=O)C(F)(F)F)C4)C2)cc1 (stereo not shown) [Compound 69]
  IC50: 15.1 nM
